Laboratory results from patent publication US6465258B1, “FXR receptor-mediated modulation cholesterol metabolism” (Tularik, Inc., priority 1999, dated 2002).
Entries after “also recorded” stand apart in the source; their conditions may differ.

Key:
LXRα [1] = molecular target: T1, LXRα (Homo sapiens, UniProt Q13133); assay: FRET (HTRF) LXRα receptor control; type: binding; details: FIG. 5B bottom panel
T1 sequence (Q13133 1-447): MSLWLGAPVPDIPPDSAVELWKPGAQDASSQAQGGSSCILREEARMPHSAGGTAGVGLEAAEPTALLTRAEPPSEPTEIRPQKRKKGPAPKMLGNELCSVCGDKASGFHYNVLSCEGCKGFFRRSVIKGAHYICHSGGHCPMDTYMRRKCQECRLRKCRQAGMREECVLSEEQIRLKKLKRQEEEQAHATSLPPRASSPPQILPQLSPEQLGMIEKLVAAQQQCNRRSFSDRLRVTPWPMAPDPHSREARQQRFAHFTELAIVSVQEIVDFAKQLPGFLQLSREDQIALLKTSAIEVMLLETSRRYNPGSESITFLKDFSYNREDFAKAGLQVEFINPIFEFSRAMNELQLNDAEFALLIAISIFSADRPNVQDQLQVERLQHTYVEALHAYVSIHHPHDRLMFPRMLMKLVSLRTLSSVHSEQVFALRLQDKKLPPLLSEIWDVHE

LXRα [2] = molecular target: T1, LXRα; assay: ELISA peptide sensor assay, LXRα control; type: binding; details: FIG. 5C bottom panel
Source text: A peptide sensor was used.

[3] = tested on: HNF4α, LXRα, RXRα and LXRβ ligand-binding domains fused to Gal4 DBD; assay: GAL4 DBD fusions with LBDs of other nuclear receptors, luciferase reporter in HepG2 cells; type: cell-based; details: 50 μM CDCA, FIG. 1A
FXR / cyp7a promoter = details: HepG2 cells
full-length FXR = molecular target: T2, full-length FXR (Homo sapiens, UniProt Q96RI1); assay: pGL3 3X FXRE luciferase reporter with full-length FXR in HepG2 cells; type: cell-based; details: panel of bile acids, FIG. 4C
T2 construct: a plasmid expressing full-length FXR (PFXR); expressed in transfected cells; host or cells: HepG2
T2 sequence (Q96RI1 1-486): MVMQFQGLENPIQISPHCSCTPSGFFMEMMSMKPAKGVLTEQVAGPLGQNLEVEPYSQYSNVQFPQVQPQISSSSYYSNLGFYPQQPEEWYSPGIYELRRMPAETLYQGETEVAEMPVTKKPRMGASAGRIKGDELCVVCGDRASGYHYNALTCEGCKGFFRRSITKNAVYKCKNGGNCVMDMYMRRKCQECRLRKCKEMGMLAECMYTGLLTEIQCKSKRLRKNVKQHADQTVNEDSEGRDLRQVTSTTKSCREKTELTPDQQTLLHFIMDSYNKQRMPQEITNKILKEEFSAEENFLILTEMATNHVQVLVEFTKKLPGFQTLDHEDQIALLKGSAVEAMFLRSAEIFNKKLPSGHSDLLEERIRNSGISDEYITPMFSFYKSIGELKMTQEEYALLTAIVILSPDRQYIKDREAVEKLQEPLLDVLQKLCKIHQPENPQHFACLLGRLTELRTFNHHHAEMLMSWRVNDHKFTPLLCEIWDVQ
Source text: The ability of different bile acids and derivatives to activate FXR-mediated transactivation was also examined.

Structure (SMILES): C[C@H](CCC1OC1(C)C)[C@H]1CC[C@H]2[C@@H]3CC=C4C[C@@H](O)CC[C@]4(C)[C@H]3CC[C@]12C (stereo partly drawn) [24,25 epoxycholesterol]
- binding of LXRα receptor control by FRET (LXRα [1]): affected
- binding of sensor peptide to LXRα control (ELISA) (LXRα [2]): increased binding

Structure (SMILES): C[C@H](CCC(=O)O)[C@H]1CC[C@H]2[C@@H]3[C@H](O)C[C@@H]4C[C@H](O)CC[C@]4(C)[C@H]3CC[C@]12C [CDCA, chenodeoxycholic acid]
- activation of ligand binding domains of other nuclear receptors fused to GAL4 DBD [3]: not activated
- suppression of CYP7 expression by nuclear receptors in presence of CDCA (FXR / cyp7a promoter; 10 μM CDCA, FXR vs CPF, HNF4α, LXRα, RXRα, FIG. 2A): Only FXR suppressed CYP7 expression
- FXR-mediated suppression of CYP7 expression, rank among bile acids (FXR / cyp7a promoter; panel of bile acids, FIG. 4D): highest level of suppression; also recorded: largest repression

Structure (SMILES): CC(CCC(=O)NCC(=O)O)C1CCC2C3C(O)CC4CC(O)CCC4(C)C3CCC12C (stereo not drawn) [GCDCA, glycochenodeoxycholic acid]
- induction of luciferase reporter activity (FXR-mediated transactivation), rank among bile acids (full-length FXR): greatest induction
